Residue numbers refer to the chain shown, from its start.
Columns and labels:
murine acute EAE model = test: Mouse acute EAE model, clinical scoring; type: in vivo, SJL mice; conditions: for clinical scores of EAE, positive controls: i.p. twice daily, Mesopram 9 mg/kg, Prednisolone 2.5 mg/kg
V729L/W755A RP (pBRES) = target: T1, V729L/W755A RP (pBRES) (Homo sapiens, UniProt P06401, V729L/W755A); test: Induction of luciferase, mSEAP or hIFNb from pBRES with V729L/W755A RP in C2C12 cells; type: cell-based, mouse; conditions: every orientation, three transgenes
T1 construct: expressed in transfected cells; host or cells: C2C12 mouse muscle cells
T1 sequence (P06401 640-914 V729L/W755A): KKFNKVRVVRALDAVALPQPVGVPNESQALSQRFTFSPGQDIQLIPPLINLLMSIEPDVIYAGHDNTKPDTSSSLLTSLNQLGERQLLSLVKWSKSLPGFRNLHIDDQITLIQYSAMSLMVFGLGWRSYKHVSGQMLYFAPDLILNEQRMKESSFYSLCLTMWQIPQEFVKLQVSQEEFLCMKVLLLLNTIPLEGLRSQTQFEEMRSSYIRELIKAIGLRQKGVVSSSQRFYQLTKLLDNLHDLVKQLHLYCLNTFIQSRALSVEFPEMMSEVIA

IP-10 [1] = test: MFP dose/response and plasmid re-injection with BRES-1/mIFN plasmid pGT26 in vivo, IP-10 ELISA; parameters: species or system C57BI/6 mice; conditions: MFP 0.0033 mg/kg i.p. days 7-10
Procedure: The inducible mIFN-γ expression plasmid pGT26 was injected and electroporated on day 0 into hind limb muscles of C57BI/6 mice. […] Bleeds were taken on day 88 and 200, respectively. Serum was assayed for the chemokine IP-10 by ELISA. The results are shown as the mean (n=5 animals per group).
In addition, a complete pharmacokinetic profile of the expression of the therapeutic molecule (TM) can be performed using an activator molecule (AM) to determine the AM dose/response, as well as the kinetics of induction of TM expression following AM administration. […] Blood was collected at days 11 post-injection, and serum samples were assayed for IP-10 (see “Experimental Design” below for details). […] By day 67 the level of IP-10 had decreased several-fold from the day 11 level, so the plasmid DNA was re-injected at day 77.
For safety studies in humans, a complete characterization of the rate at which the activator molecule (AM) and TM expression can be turned “off” following withdrawal of the AM can be performed. The frequency of AM dosing necessary to achieve steady state levels of the TM can be evaluated.
• DNA solutions: Each mouse received 250 ug of plasmid DNA in 150 ul PBS. • DNA delivery: Adult male C57BI/6 mice were injected bilaterally on day 0 with 250 ug plasmid DNA per mouse in 150 ul PBS. […]

original RP (pGT45) = target: T2, original RP (pGT45) (Homo sapiens, UniProt P06401); test: In vivo mSEAP serum level after inducer, mice with pGT45 (original RP); conditions: 0.33 mg/kg or 1 mg/kg i.p. days 7-10
T2 construct: expressed in transfected cells; host or cells: mouse hind limb muscle in vivo (plasmid injection plus electroporation)
T2 sequence (P06401 640-914): T1 sequence (P06401 640-914 V729L/W755A) with L90V, A116W
Procedure: Upon the conclusion of in vitro testing, the divergent orientation of mSEAP and RP in pGT45 and pGT1048 were tested side-by-side in a mouse study. Mice were injected with plasmid DNA in the hind limbs and electroporation was used to deliver the DNA into the muscle cells on day 0. […] Six hours after the last injection on day 10, samples of blood were collected from the tail veins of the mice. mSEAP levels in the serum were measured to determine the level of this reporter expression following induction with compounds. Additional blood samples were collected prior to injection of inducers on day 7, as well as on days 18 and 25 to monitor the drop off of mSEAP expression.

Mx1 RNA [2] = test: Mx1 RNA induction in L929 cells (TaqMan RT-PCR); type: cell-based, murine
Procedure: FIG. 5 illustrates Mx1 RNA induction in vitro (in L929 cells) by mIFN-ÿ. L929 cells were seeded at 5×10^5 cells in 6 well plates and stimulated with increasing amounts of purified recombinant mIFN-ÿ protein. Four hours after treatment the cells were harvested, RNA isolated, and Mx1 RNA quantitated by TaqMan analysis. Mx1 RNA expression is plotted as the fold increase relative to GAPDH RNA.
A quantitative PCR/RT-PCR assay was developed to quantitate the levels of Mx1 mRNA in murine PBMC's. Specifically, peripheral blood mononuclear cells (PBMCs) were isolated from mice treated with either mIFN-β protein or following gene-based delivery of the mIFN-β gene. Blood samples obtained from treated mice were centrifuged on a ficoll cushion for 25 minutes at 2,000 rpm. Purified PBMCs were pelleted and RNA for the Mx1 assay was purified using the “RNAeasy” mini extraction kit from Qiagen. The RNA was stored in H2O at −80° C. Mx1 RT-PCR was performed using TaqMan® chemistry and analysis was done on the Applied Biosystems (ABI) PRISM® 7700 Sequence Detection instrument. For reverse transcription of the RNA and amplification of cDNA, the “One-step TaqMan® RNA” kit from ABI was used. […] The samples were analyzed with an Mx1-specific probe/primer combination. Mx1 expression was normalized to GAPDH expression measured in parallel using a standard assay from ABI. […]

Mx1 RNA [3] = test: Mx1 RNA induction in PBMCs of mice (quantitative RT-PCR) after mIFN-β protein or gene delivery; type: in vivo, C57BI/6 mice
Procedure: C57BI/6 mice were administered 15, 150, or 500 ng of purified recombinant mIFN-ÿ protein (specific activity-2.0×108 units/mg) by either i.v. (via tail vein) or i.m. injection (n=3 mice per group). At the specified time points post-injection mice were bled, and RNA was isolated from PBMCs. Mx1 RNA was measured by quantitative RT-PCR. The fold increase in Mx1 RNA is expressed relative to GAPDH values measured in the same samples. The controls include naive mice (N), and mice injected with the vehicle buffer only followed by Mx1 analysis at 2 hours (V2h) or 4h (V4h) post-injection. Each column represents the mean value+/−standard deviation.
A quantitative PCR/RT-PCR assay was developed to quantitate the levels of Mx1 mRNA in murine PBMC's. Specifically, peripheral blood mononuclear cells (PBMCs) were isolated from mice treated with either mIFN-β protein or following gene-based delivery of the mIFN-β gene. Blood samples obtained from treated mice were centrifuged on a ficoll cushion for 25 minutes at 2,000 rpm. […] The samples were analyzed with an Mx1-specific probe/primer combination. Mx1 expression was normalized to GAPDH expression measured in parallel using a standard assay from ABI.
B. Bolus Injection of mIFN-β Protein Induces Transient Biomarker Response In Vivo: The biomarker response after bolus injection of purified recombinant mIFN-β was measured in these studies.

[4] = Luciferase reporter gene assay for activity of purified mIFN-β protein; type: cell-based; conditions: commercial mIFN-β reference standard
Procedure: Specifically, the gene encoding mIFN-β was cloned into a pCEP4 expression vector (Invitrogen). The expression plasmid encoding mIFN-β was transiently transfected into 293E cells (Edge Biosystems) using X-tremeGene Ro-1539 Transfection Reagent (Roche). Murine IFN-β protein was purified from the medium by ion-exchange chromatography and by hydrophobic-interaction chromatography. The product was sialyzed and concentrated against dilution buffer (50 mM sodium acetate, pH 5.5, 150 mM sodium chloride, and 5% polypropylene glycol) and sterile filtered. Aliquots of the purified protein were stored at −80° C. The activity of the purified protein was assessed using a luciferase reporter gene assay (Hardy et al. (2001) Blood 97:473-482), using a commercial mIFN-β reference standard from Access Biomedical (San Diego, Calif.). The specific activity of the purified protein was 2×10^8 units/mg.

IP-10 [5] = test: IP-10 plasma level in mice (ELISA) after mIFN-β protein or gene delivery; type: in vivo, C57BI/6 mice
Procedure: (§1) FIG. 7 illustrates induction levels of IP-10 (A) and JE (B) following i.v. or i.m. injection of murine IFN-ÿ protein. C57BI/6 mice were administered 15, 150, or 500 ng of purified recombinant mIFN-ÿ protein (specific activity=2.0×108 units/mg) by either i.v. (via tail vein) or i.m. injection (n=3 mice per group). The mice were bled at 2, 4, 6, 12, 24, and 48 hours post-injection, and the plasma levels of IP-10 and JE were measured by ELISA (R&D Systems).
FIG. 8 illustrates the induction of IP-10 following intramuscular injection of AAV-1-mIFN-ÿ DNA or mIFN-ÿ plasmid DNA with electroporation (EP) in mice. Normal mice (C57BI/6) were injected i.m. with either AAV-1-mIFN-ÿ (5×10^9 viral particles), or mIFN-ÿ plasmid DNA (150 ug) with electroporation. Mice were bled at the indicated time points and IP-10 levels in plasma were determined by ELISA. Each column represents the mean value+/−the standard deviation (n=5 mice per group).
C. Chemokines IP-10 and JE: During the analysis of plasma samples from mice treated with mIFN-β protein, two murine chemokines, IP-10 and JE the murine homologue of MCP-1 (monocyte chemoattractant protein, see e.g., Yoshimura, T (1989) FEBS Lett 244: 487-93), were also identified to have a similar response and activation to mIFN-β as Mx1 RNA (FIGS. 7 and 8). […]
The plasma samples were also analyzed for IP-10 and JE (FIGS. 7 and 8). […]

JE = JE plasma level in mice (ELISA) after mIFN-β protein or gene delivery; type: in vivo, C57BI/6 mice; conditions: each of three doses, i.v. or i.m.
Procedure: as §1
C. Chemokines IP-10 and JE: During the analysis of plasma samples from mice treated with mIFN-β protein, two murine chemokines, IP-10 and JE the murine homologue of MCP-1 (monocyte chemoattractant protein, see e.g., Yoshimura, T (1989) FEBS Lett 244: 487-93), were also identified to have a similar response and activation to mIFN-β as Mx1 RNA (FIGS. 7 and 8). A strong induction of IP-10 and JE was seen 2 hours after administration of mIFN-β protein either i.v. or i.m. IP-10 levels increased 3000-fold at the high dose delivered i.v. With each of the three mIFN-β doses tested, a rapid drop to background in the plasma levels of IP-10 and JE was observed by 24 hours.

GAL-4 DBS = conditions: read-out: Kd for binding; cited from earlier work

CCCOc1cc([C@]2(C)CNC(=O)O2)ccc1OC [Mesopram]
clinical scores of EAE, positive controls (murine acute EAE model; first study): significantly decreased clinical scores | clinical scores of EAE, positive controls (murine acute EAE model; second study): significantly decreased clinical scores

C[C@]12C=CC(=O)C=C1CC[C@@H]1[C@@H]2[C@@H](O)C[C@@]2(C)[C@H]1CC[C@]2(O)C(=O)CO [Prednisolone]
clinical scores of EAE, positive controls (murine acute EAE model; first study): significantly decreased clinical scores | clinical scores of EAE, positive controls (murine acute EAE model; second study): significantly decreased clinical scores

CC#C[C@]1(O)CC[C@H]2[C@@H]3CCC4=CC(=O)CCC4=C3[C@@H](c3ccc(N(C)C)cc3)C[C@@]21C [MFP, 11-(4-dimethylaminophenyl)-17-hydroxy-17c-propynyl-4,9-estradiene-3-one]
activity of engineered RP when induced (V729L/W755A RP (pBRES)): retained full activity | IP-10 levels at lowest MFP dose (IP-10 [1]): no increase over background IP-10 levels | response (serum mSEAP) of mice to inducer (original RP (pGT45)): responded well

mIFN-β: purified recombinant murine interferon-β protein expressed in 293E cells
increase in the level of Mx1 RNA (Mx1 RNA [2]): 100 fold | EC50 of Mx1 RNA induction (Mx1 RNA [2]; 4 hours treatment): approximately 50 pg/ml | time of highest Mx1 expression levels after injection (Mx1 RNA [3]; bolus protein): 2 h | time after injection beyond which no Mx1 RNA levels above background were detected (Mx1 RNA [3]; bolus protein i.m.): 12 h | clinical scores of EAE compared to vehicle treated mice (murine acute EAE model; first study, 30,000 units s.c. every other day): did not reach statistical significance | clinical scores of EAE compared with vehicle treated mice (murine acute EAE model; first study, 100,000 units s.c. every other day): significantly decreased clinical scores | clinical scores compared to the vehicle control treated mice (murine acute EAE model; second study, 100,000 Units s.c. every other day): significantly decreased clinical scores | specific activity of the purified protein [4]: 2×10^8 units/mg | time of drop to background of IP-10 plasma level (IP-10 [5]; each of three doses, i.v. or i.m.): ≤ 24 h | increase of IP-10 levels (IP-10 [5]; high dose delivered i.v.): 3000 fold | time of drop to background of JE plasma level (JE): ≤ 24 h

GAL-4 residues 1-100: N-terminal DNA binding domain fragment of yeast GAL-4 protein
Kd (GAL-4 DBS): 3 nM
